Assay results from ChEMBL document CHEMBL3870347, “Antimycobacterial activity of novel hydrazide-hydrazone derivatives with 2H-chromene and coumarin scaffold” (Bioorg Med Chem Lett, 2017).
Values after ≈ are worked out from the molar mass of the structure shown. Counter-ions that a name gives are not always drawn.

Experiments:
[1] = Cytotoxicity against HEK293T cells assessed as decrease in cell viability after 72 hrs by MTT assay; type: toxicity, cell-based, HEK-293T; conditions: human
[2] = Selectivity index, ratio of IC50 for HEK293T cells to MIC for Mycobacterium tuberculosis H37Rv; type: toxicity, cell-based, HEK-293T; conditions: human, read-out: Selectivity Index
[3] = system: Mycobacterium tuberculosis; assay: Antimycobacterial activity against Mycobacterium tuberculosis H37Rv after 45 days; type: functional

Cc1nnsc1C(=O)N/N=C/c1c(Cl)c2ccccc2oc1=O
IC50 at 72 h [1]: 30.2 µM | selectivity ratio [2]: 45 | MIC [3]: 0.67 µM (≈ 0.234 µg/mL)

CC1Oc2ccccc2C=C1/C=N/NC(=O)c1ccc(O)cc1 (centres undefined)
IC50 at 72 h [1]: 48.8 µM | selectivity ratio [2]: 76.2 | MIC [3]: 0.64 µM (≈ 0.197 µg/mL)

Cc1nnsc1C(=O)N/N=C/C1=Cc2ccccc2OC1c1ccccc1 (centres undefined)
IC50 at 72 h [1]: 30.2 µM | selectivity ratio [2]: 56.9 | MIC [3]: 0.53 µM (≈ 0.2 µg/mL)

CC1Oc2ccccc2C=C1/C=N/NC(=O)c1ccncc1 (centres undefined)
IC50 at 72 h [1]: 76.3 µM | selectivity ratio [2]: 449 | MIC [3]: 0.17 µM (≈ 0.0499 µg/mL)

CC[C@@H](CO)NCCN[C@@H](CC)CO [ETHAMBUTOL HYDROCHLORIDE]
MIC [3]: 7.64 µM

COc1ccc(C(=O)N/N=C/C2=Cc3ccccc3OC2)cc1
IC50 at 72 h [1]: 36 µM | MIC [3]: 6.48 µM (≈ 2 µg/mL)

O=C(N/N=C/C1=Cc2ccccc2OC1c1ccccc1)c1ccco1 (centres undefined)
IC50 at 72 h [1]: 11.9 µM | selectivity ratio [2]: 79.4 | MIC [3]: 0.15 µM (≈ 0.0517 µg/mL)

CC1Oc2ccccc2C=C1/C=N/NC(=O)c1ccco1 (centres undefined)
IC50 at 72 h [1]: 21.2 µM | selectivity ratio [2]: 118 | MIC [3]: 0.18 µM (≈ 0.0508 µg/mL)

O=C(N/N=C/C1=Cc2ccccc2OC1c1ccccc1)c1cccs1 (centres undefined)
MIC [3]: > 5.54 µM

O=C(N/N=C/c1c(Cl)c2ccccc2oc1=O)c1ccc(O)cc1
IC50 at 72 h [1]: 33.1 µM | MIC [3]: 5.83 µM (≈ 2 µg/mL)

CC1Oc2ccccc2C=C1/C=N/NC(=O)c1ccc(Cl)cc1 (centres undefined)
MIC [3]: > 6.12 µM

O=C(N/N=C/C1=Cc2ccccc2OC1c1ccccc1)c1ccc(F)cc1 (centres undefined)
IC50 at 72 h [1]: 30.9 µM | MIC [3]: 1.34 µM (≈ 0.499 µg/mL)

COc1ccc(C(=O)N/N=C/C2=Cc3ccccc3OC2c2ccccc2)cc1 (centres undefined)
IC50 at 72 h [1]: 90.7 µM | selectivity ratio [2]: 697 | MIC [3]: 0.13 µM (≈ 0.05 µg/mL)

O=C(N/N=C/C1=Cc2ccccc2OC1)c1ccco1
IC50 at 72 h [1]: 47.3 µM | selectivity ratio [2]: 63.9 | MIC [3]: 0.74 µM (≈ 0.199 µg/mL)

O=C(N/N=C/c1c(Cl)c2ccccc2oc1=O)c1ccncc1
IC50 at 72 h [1]: 12.6 µM | MIC [3]: 6.1 µM (≈ 2 µg/mL)

CC1Oc2ccccc2C=C1/C=N/NC(=O)c1cccs1 (centres undefined)
MIC [3]: > 6.7 µM

O=C(N/N=C/C1=Cc2ccccc2OC1)c1cccs1
IC50 at 72 h [1]: 22.1 µM | MIC [3]: 7.03 µM (≈ 2 µg/mL)

CC1Oc2ccccc2C=C1/C=N/NC(=O)c1ccccc1 (centres undefined)
IC50 at 72 h [1]: 23.3 µM | MIC [3]: 6.84 µM (≈ 2 µg/mL)

O=C(N/N=C/C1=Cc2ccccc2OC1c1ccccc1)c1ccc(Cl)cc1 (centres undefined)
IC50 at 72 h [1]: 13.2 µM | MIC [3]: > 5.14 µM

NNC(=O)c1ccncc1 [ISONIAZID]
MIC [3]: 1.45 µM (≈ 0.199 µg/mL)

O=C(N/N=C/C1=Cc2ccccc2OC1)c1ccc(Cl)cc1
MIC [3]: 6.39 µM (≈ 2 µg/mL)

COc1ccc(C(=O)N/N=C/C2=Cc3ccccc3OC2C)cc1 (centres undefined)
MIC [3]: 6.2 µM (≈ 2 µg/mL)

O=C(N/N=C/c1c(Cl)c2ccccc2oc1=O)c1ccccc1
IC50 at 72 h [1]: 28.6 µM | MIC [3]: 6.12 µM (≈ 2 µg/mL)

O=C(N/N=C/c1c(Cl)c2ccccc2oc1=O)c1ccc(F)cc1
IC50 at 72 h [1]: 26.2 µM | MIC [3]: 1.45 µM (≈ 0.5 µg/mL)
